These results are taken from patent US20150374851A1, “AAV VECTORS EXPRESSING SEC10 FOR TREATING KIDNEY DAMAGE” (The Trustees of the University of Pennsylvania, priority 2009, published 2015).

Experiment [1] relates to Sec10-overexpressing MDCK cells. The procedure:
(§1) Type II Madin-Darby canine kidney (MDCK) cells (Control cells) were obtained from Dr. K. Mostov (UCSF, San Francisco, Calif.). MDCK type II cells were overexpressing hSec10 (Sec10-overexpressing cells). See, e.g, Lipschutz et al, 2000 cited above. Cells were grown in modified Eagle's minimal essential medium (MEM) containing Earl's balanced salt solution and glutamine supplemented with 5% fetal calf serum, 100 U/ml penicillin, and 100 μg/m streptomycin on the plastic culture dishes. Some cells were grown on the 24-mm Transwell 0.45 μm polycarbonate filter units coated with collagen (Corning Life Sciences, Lowell, Mass.). Pore size on all filters was 0.4 μm. Cell monolayers were used for experiments after 7 d of culture with daily changes in medium. Cells were plated as single cells in a three-dimensional (3D) type I collagen gel. To culture collagen matrix, cells grown on plastic culture dishes were harvested using trypsin-EDTA, and suspended cells on the type I collagen gel and then seeded in chamber slide for 14 days and then treated with H2O2 (Sigma-Aldrich, Co.).
(§2) Control cells and Sec10-overexpressing cells were grown on the Transwell filter for 7 days after seeding. TER was measured using epithelial volt-ohmmeter (Model EVOM, World Precision Instruments). TER values were presented as the measured resistance in ohm multiplied by the surface area of the Transwell filter.
(§3) 1) control and Sec10-overexpressing cells were treated with U0126 alone for 30 min, U0126 plus H2O2 for 30 min, and then U0126 alone for 24 hrs (FIG. 5A), and
(§4) 2) control and Sec10-overexpressing cells were treated with H2O2 for 30 min, and U0126 alone for 24 hrs (FIG. 5B).

The test system of another experiment is control MDCK cells. The procedure:
as §1, §2, §3, §4

Experiment [2] deals with Sec10-overexpressing MDCK cells. As to conditions: U0126 30 min, then 1 mM H2O2 plus U0126 30 min. The protocol: (§5) Normal and hSec10-overexpressing (Sec10) MDCK cells were grown on collagen-matrix for 12-14 days as described herein and then treated with 1 mM of hydrogen peroxide for 30 min. Some cells were treated with 10 μM U0126 30 min before the treatment of hydrogen peroxide. After the treatment cells were fixed with 4% paraformaldehyde and then stained with F-actin phalloidin-conjugated cy3. Numbers of damaged cysts were counted using fluorescence microscope.
as §1, with “To culture collagen matrix, cells grown on plastic culture dishes were harvested using trypsin-EDTA, and suspended cells on the type I collagen gel and then seeded in chamber slide for 14 days and then treated with H2O2 (Sigma-Aldrich, Co.).” left out

A further experiment deals with normal MDCK cells. To be noted: U0126 30 min, then 1 mM H2O2 plus U0126 30 min. The protocol:
as §5
as §1, with “To culture collagen matrix, cells grown on plastic culture dishes were harvested using trypsin-EDTA, and suspended cells on the type I collagen gel and then seeded in chamber slide for 14 days and then treated with H2O2 (Sigma-Aldrich, Co.).” left out

For experiment [3], the system named is phosphorylated (active) ERK. To be noted: 10 μM U0126 for 30 min, then 1 mM H2O2 for 30 min; Transwell filter.
Description: Normal and hSec10-overexpressing (Sec10) MDCK cells were grown on transwell filter culture dish at confluence, incubated in either vehicle or 10 μM of U0126 (an inhibitor of ERK activation) for 30 min, and then treated with 1 mM of H2O2 for 30 min. After 30 min of incubation in U0126 cells were harvested and used to detect the levels of phosphorylated ERK. Cells were lysed in SDS buffer.
Briefly, cells or kidneys were harvested in the RIPA (Sigma Co.) containing proteinase inhibitor cocktail (Sigma. Co) and phosphatase inhibitor cocktail (Sigma. Co) and centrifuged 14,000 rpm for 20 min at 4° C. Supernatants, then, were collected and protein concentration was determined using BCA protein assay kit. Protein samples were mix SDS-sample buffer and denatured by 5 min of boiling at 95° C. The protein samples were separated on 4-12% SDS-PAGE gels and then transferred to an Immobilon membrane (Millipore Corp., Bedford, Mass.). The membranes were blocked by 5% of non-fat dry milk in PBS containing of 0.1% Tween-20 (PBS-T), and incubated in anti-phospho-ERK (1:1000, Cell signaling), -total-ERK (1:5000, Cell signaling), and -Sec10 (1:500; Lipschutz lab.) antibodies overnight at 4° C. After washing with 3 times with 0.1% PBS-T, the membranes were incubated with horseradish peroxidase-conjugated secondary antibodies for 1 h at RT. […]

For the compound `N#CC(=C(/N)Sc1ccccc1N)/C(C#N)=C(\N)Sc1ccccc1N` [U0126], the figures for the “TER relative to TER in H2O2 alone” value (in experiment [1]; in the experiment with control MDCK cells) were “about 80%” and “about 83%”, respectively. Moreover, the “TER versus U0126-nontreated cells” value in experiment [1] (Sec10-overexpressing cells, 24 hrs after removal of H2O2) is given as “significantly lower”. In addition, the “H2O2-induced decrease of TER” value in experiment [1] (Sec10-overexpressing cells, U0126 pretreatment 30 min, 1 mM H2O2) is “accelerated H2O2-induced decrease of TER”; with control MDCK cells (control cells, U0126 pretreatment 30 min, 1 mM H2O2), “accelerated H2O2-induced decrease of TER”. In addition, the “TER recovery versus non-U0126 treated cells” value in the experiment with control MDCK cells (control cells, 24 hrs after removal of H2O2) is given as “not significantly different”. Besides, the “Numbers of damaged cysts” value (in experiment [2]; in the experiment on normal MDCK cells) was “increased” throughout. For the same compound, the “ERK phosphorylation caused by H2O2 treatment” value in experiment [3] is “blocked ERK phosphorylation”.
